Laboratory results from PMC12232896 (Angewandte Chemie (International Ed. in English), 2025).

Experiments:
Pf3D7 strain = conditions: cited from earlier work
PvPI4Kβ = PvPI4Kβ (Plasmodium vivax, UniProt A5KB26); parameters: method as in PMID 33590753, PMID 28446690, PMID 30249687; conditions: same assay; cited from earlier work
P. berghei = system: P. berghei; parameters: method as in earlier work; conditions: 4 × 30 mg/kg; cited from earlier work
HsMINK1 = molecular target: T1, HsMINK1 (Homo sapiens, UniProt Q8N4C8); experiment: HsMINK1 ADP-Glo kinase assay; assay type: biochemical; conditions: reference compound, 10 µM ATP
T1 construct: purchased Reaction Biology

HsMAP4K4 = molecular target: T2, HsMAP4K4 (Homo sapiens, UniProt O95819); experiment: HsMAP4K4 ADP-Glo kinase assay; assay type: biochemical; conditions: reference compound, 10 µM ATP
T2 construct: purchased Reaction Biology
T2 sequence (O95819 whole entry): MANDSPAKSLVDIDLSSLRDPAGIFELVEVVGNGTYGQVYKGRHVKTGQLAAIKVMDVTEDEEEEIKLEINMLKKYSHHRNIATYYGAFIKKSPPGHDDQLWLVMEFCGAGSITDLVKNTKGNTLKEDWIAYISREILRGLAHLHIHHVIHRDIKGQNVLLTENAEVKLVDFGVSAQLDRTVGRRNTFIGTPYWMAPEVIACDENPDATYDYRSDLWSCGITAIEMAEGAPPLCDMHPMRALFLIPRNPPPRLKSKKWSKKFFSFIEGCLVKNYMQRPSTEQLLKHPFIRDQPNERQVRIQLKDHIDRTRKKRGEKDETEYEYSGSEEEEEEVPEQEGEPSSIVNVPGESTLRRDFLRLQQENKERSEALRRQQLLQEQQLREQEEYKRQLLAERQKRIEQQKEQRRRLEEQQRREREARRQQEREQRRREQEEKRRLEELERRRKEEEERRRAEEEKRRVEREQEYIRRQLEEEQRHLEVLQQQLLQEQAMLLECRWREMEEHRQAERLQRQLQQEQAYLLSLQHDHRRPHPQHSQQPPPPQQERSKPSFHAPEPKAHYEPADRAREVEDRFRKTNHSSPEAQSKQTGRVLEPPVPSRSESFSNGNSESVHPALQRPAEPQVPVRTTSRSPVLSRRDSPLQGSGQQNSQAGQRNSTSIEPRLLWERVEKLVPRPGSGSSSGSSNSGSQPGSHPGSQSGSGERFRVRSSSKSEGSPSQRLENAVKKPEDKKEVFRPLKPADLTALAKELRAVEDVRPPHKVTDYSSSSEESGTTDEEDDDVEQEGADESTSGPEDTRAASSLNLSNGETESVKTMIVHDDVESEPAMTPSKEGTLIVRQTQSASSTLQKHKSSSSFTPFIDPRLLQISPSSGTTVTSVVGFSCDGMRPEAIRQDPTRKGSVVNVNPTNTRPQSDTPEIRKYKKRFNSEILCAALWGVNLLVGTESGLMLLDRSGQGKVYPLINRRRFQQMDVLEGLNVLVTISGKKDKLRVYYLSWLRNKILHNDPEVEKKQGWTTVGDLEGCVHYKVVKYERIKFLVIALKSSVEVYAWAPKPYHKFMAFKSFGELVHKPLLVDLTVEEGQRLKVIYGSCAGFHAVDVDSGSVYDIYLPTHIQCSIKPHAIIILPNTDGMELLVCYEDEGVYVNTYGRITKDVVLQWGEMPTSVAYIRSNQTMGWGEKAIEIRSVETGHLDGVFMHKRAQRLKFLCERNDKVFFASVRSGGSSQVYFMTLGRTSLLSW

PvPI4Kβ, sequence (A5KB26 entry or part of it): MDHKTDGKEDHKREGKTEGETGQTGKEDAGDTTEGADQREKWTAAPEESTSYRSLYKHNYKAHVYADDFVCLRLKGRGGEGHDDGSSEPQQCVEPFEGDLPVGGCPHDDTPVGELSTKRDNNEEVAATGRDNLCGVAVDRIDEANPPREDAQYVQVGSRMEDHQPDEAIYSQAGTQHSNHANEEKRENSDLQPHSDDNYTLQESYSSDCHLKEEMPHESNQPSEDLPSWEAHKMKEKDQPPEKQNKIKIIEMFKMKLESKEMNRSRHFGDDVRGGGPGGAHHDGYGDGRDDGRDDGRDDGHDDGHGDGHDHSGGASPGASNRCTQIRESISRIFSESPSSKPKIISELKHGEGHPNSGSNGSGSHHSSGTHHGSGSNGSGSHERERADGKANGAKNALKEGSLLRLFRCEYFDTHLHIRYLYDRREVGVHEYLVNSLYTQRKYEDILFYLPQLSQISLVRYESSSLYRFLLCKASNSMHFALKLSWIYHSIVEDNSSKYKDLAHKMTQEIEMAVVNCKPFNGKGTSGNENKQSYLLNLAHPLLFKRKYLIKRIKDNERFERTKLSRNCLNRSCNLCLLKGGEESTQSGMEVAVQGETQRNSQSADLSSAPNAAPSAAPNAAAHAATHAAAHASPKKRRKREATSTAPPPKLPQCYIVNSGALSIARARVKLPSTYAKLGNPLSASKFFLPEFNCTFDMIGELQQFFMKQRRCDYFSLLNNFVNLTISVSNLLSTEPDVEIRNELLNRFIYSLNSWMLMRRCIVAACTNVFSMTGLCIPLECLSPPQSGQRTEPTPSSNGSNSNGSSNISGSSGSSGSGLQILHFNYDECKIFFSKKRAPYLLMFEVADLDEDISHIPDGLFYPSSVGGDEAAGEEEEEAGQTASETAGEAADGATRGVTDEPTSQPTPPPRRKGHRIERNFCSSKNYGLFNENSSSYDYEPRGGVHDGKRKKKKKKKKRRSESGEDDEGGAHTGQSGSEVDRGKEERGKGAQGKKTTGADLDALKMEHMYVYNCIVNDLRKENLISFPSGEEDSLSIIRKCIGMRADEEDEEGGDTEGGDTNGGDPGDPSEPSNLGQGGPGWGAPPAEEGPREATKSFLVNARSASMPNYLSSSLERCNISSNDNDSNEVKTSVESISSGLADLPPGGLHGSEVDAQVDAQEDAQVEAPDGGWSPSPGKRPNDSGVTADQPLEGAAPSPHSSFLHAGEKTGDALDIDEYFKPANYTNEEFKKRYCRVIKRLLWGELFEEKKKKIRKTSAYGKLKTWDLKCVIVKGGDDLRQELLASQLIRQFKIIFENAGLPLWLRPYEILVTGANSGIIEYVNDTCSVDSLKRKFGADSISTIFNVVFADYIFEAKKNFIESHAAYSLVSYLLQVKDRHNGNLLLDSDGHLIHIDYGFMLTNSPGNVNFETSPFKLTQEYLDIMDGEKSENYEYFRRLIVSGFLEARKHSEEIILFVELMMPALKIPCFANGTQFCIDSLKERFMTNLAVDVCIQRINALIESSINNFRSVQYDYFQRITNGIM
T1 sequence (Q8N4C8 whole entry): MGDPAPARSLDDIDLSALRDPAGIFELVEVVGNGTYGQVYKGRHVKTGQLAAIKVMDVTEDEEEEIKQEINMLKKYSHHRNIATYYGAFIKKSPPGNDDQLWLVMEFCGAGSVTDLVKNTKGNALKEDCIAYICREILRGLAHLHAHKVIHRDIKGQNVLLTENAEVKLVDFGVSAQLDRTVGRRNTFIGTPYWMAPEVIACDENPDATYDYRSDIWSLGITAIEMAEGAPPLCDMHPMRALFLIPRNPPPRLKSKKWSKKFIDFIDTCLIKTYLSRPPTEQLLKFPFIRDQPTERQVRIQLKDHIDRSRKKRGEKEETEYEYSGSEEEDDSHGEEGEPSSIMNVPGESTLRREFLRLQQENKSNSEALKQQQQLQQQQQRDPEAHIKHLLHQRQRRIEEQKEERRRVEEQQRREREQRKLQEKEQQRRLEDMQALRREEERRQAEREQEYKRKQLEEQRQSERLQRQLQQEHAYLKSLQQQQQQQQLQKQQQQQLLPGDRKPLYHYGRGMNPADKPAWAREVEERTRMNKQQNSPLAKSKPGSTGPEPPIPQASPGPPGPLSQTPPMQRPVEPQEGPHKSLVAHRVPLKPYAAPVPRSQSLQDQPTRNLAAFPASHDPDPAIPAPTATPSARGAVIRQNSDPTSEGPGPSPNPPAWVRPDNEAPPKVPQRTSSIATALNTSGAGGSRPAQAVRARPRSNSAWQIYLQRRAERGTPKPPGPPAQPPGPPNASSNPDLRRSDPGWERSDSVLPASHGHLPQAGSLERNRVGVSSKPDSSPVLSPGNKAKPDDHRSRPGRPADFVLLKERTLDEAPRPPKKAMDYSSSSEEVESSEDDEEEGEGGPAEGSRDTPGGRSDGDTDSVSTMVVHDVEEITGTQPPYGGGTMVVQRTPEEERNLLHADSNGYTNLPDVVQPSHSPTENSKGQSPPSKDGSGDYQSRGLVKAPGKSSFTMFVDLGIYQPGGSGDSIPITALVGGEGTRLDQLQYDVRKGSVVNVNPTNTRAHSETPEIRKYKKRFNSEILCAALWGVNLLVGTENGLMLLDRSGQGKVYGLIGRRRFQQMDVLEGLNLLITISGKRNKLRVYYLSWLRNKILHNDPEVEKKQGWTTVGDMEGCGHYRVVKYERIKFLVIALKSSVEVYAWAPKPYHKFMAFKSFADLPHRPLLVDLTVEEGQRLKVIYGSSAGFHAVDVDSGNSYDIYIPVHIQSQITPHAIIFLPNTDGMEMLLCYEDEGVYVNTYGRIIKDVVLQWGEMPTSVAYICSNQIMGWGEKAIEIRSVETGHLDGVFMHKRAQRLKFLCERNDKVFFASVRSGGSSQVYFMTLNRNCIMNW

Structure (SMILES)	IC50 (PvPI4Kβ) [nM]	reduction in parasitaemia (P. berghei) [%]	other results
Nc1ncc(-c2ccc(C(=O)N3CCNCC3)cc2)nc1-c1ccc(C(F)(F)F)cc1 [UCT943]	< 5	–	logPRR (Pf3D7 strain): 2.5
C[C@H]1[C@H](OC(=O)CCC(=O)O)O[C@@H]2O[C@@]3(C)CC[C@H]4[C@H](C)CC[C@@H]1[C@@]24OO3 [artesunate]	–	99	–
CCN(CC)CCCC(C)Nc1ccnc2cc(Cl)ccc12 (stereo not shown) [chloroquine]	–	99.9	–
CC(C)n1nc(-c2ccc3oc(N)nc3c2)c2c(N)ncnc21 [sapanisertib]	< 5	–	–
CN[C@@H]1C[C@H]2O[C@@](C)([C@@H]1OC)n1c3ccccc3c3c4c(c5c6ccccc6n2c5c31)C(=O)NC4 [staurosporine]	–	–	inhibition HsMINK1 (HsMINK1): nanomolar inhibition; inhibition HsMAP4K4 (HsMAP4K4): nanomolar inhibition
